{"source": "patent US9034825B2", "about": "“Treatment of myocardial injury with humanin analogs” (Albert Einstein College of Medicine of Yeshiva University, priority 2007, dated 2015)", "tested_on": "Sprague-Dawley rats", "test": "ICV infusion of humanin or F6A HN with basal and hyperinsulinemic clamp (Example 2)", "assay_type": "in vivo, rat", "from_the_text": "Young (3 mo old, n=6 in each group), male Sprague-Dawley rats (Charles River Laboratories, Wilmington, Mass.) were used for this study. Rats were housed in individual cages and were subjected to a standard light (6:00 AM to 6:00 PM)—dark (6:00 PM to 6:00 AM) cycle. All rats were fed ad libitum using regular rat chow that consisted of 64% carbohydrate, 30% protein, and 6% fat with a physiological fuel value of 3.3-kcal/g chow. 2 to 4 weeks before the in vivo study, the rats were anesthetized by inhalation of isoflurane and ICV cannula was placed in the third ventricle for infusions of humanin, humanin analog F6A HN or artificial CSF (aCSF), as previously described (Muzumdar et al., 2003) (FIG. 6). Briefly, a 26-gauge stainless steel guide cannula (Plastics One, Roanoke, Va.) was chronically implanted into the third ventricles using the following coordinates from bregma: anterior-posterior; +0.2 mm dorsal-ventral; −9.0 mm medial-lateral; 0.0 directly on the mid-sagittal suture, followed by a 28-gauge dummy cannula, inserted to prevent clogging of the guide cannula. The implant was secured to the skull with Caulk Grip dental cement, and the skin was closed over the implant using wound clips. The recovery of rats from the surgical stress was monitored with daily weight, food intake, and movement.\nUpon recovery of body weight, usually a week, indwelling catheters were placed in the right internal jugular vein and in the left carotid artery (Muzumdar et al., 2003). The venous catheter was extended to the level of the right atrium, and the arterial catheter was advanced to the level of the aortic arch. Recovery was continued until body weight was within 3% of the pre-operative weight (˜4-6 days). In the rats that received peripheral humanin, only the vascular catheters were placed.\nStudies were performed in unrestrained rats using the insulin clamp technique, in combination with high performance liquid chromatography-purified [3-^3H]glucose, as described previously (Liu et al., 1998). Food was removed for ˜5 h before the in vivo protocol. All studies lasted 360 min and included a 120-min equilibration period, a 120-min basal period for assessment of the basal glucose turnover, and a 120-min hyperinsulinemic clamp period. All rats received ICV infusions (bolus followed by continuous ICV infusions of humanin, F6A HN or aCSF, depending on the group) over the entire 6 hours of the study. At the beginning of the basal period and 120 min before starting the glucose/insulin infusions, a primed-continuous infusion of high performance liquid chromatography-purified [3-^3H]glucose (NEN Life Science Products, Boston, Mass.; 20 μCi of bolus, 0.2 μCi/min) was initiated and maintained throughout the remaining 4 h of the study. In the final 2 hours of the study, the rats were subjected to hyperinsulinemic clamp. The protocol followed during the insulin clamp study was similar to that previously described (Liu et al., 1998). Briefly, a primed-continuous infusion of regular insulin (3 milliunits/kg-min) was administered, and a variable infusion of a 25% glucose solution was started and periodically adjusted to clamp the plasma glucose concentration at 7-8 mM. To prevent endogenous insulin secretion and in order to control for possible effects of ICV infusions on the endocrine pancreas, somatostatin (1.5 μg/kg-min) was also infused in all the groups.\nA bolus of humanin (6 μg) was followed by a continuous infusion over 6 hours (total dose of 18 μg, 0.1 μg/kg/min).\nF6A HN has one amino acid substitution (F6A-phenylalanine to alanine on position 6) and has been characterized. A bolus of F6 A HN ([…]) was followed by a continuous infusion over 6 hours (total 18 μg, 0.1 μg/kg/min).\nPlasma glucose (sample volume 10 μl) was measured by the glucose oxidase method (Glucose Analyzer II, Beckman Instruments, Palo Alto, Calif.). […]", "key": {"[1]": {"conditions": "ICV 18 μg over 6 h, basal period"}, "[2]": {"conditions": "ICV 18 μg over 6 h, hyperinsulinemic clamp"}}, "data": [{"smiles": "CC[C@H](C)[C@H](NC(=O)[C@H](CCC(=O)O)NC(=O)[C@H](CO)NC(=O)[C@@H](NC(=O)[C@H](CC(C)C)NC(=O)[C@H](CC(C)C)NC(=O)[C@H](CC(C)C)NC(=O)[C@H](CC(C)C)NC(=O)[C@H](CS)NC(=O)[C@H](CO)NC(=O)[C@H](Cc1ccccc1)NC(=O)CNC(=O)[C@H](CCCNC(=N)N)NC(=O)[C@@H]1CCCN1C(=O)[C@H](C)NC(=O)[C@@H](N)CCSC)[C@@H](C)O)C(=O)N[C@@H](CC(=O)O)C(=O)N[C@@H](CC(C)C)C(=O)N1CCC[C@H]1C(=O)N[C@H](C(=O)N[C@@H](CCCCN)C(=O)N[C@@H](CCCNC(=N)N)C(=O)N[C@@H](CCCNC(=N)N)C(=O)N[C@@H](C)C(=O)O)C(C)C", "note": "[Humanin, maprgfscll lltseidlpv krra]", "values": [{"measurement": "Glycogen synthesis, Basal", "setting": "[1]", "value": "4.89 ± 0.61"}, {"measurement": "Glycolysis, Basal", "setting": "[1]", "value": "7.99 ± 0.73", "unit": "mg/kg/min"}, {"measurement": "HGP, Basal", "setting": "[1]", "value": "12.87 ± 1.6", "unit": "mg/kg/min"}, {"measurement": "FFA", "setting": "[2]", "value": "0.33 ± 0.03", "unit": "mEq/L"}, {"measurement": "Glycogen synthesis, Clamp", "setting": "[2]", "value": "9.75 ± 0.92"}, {"measurement": "Glycolysis, Clamp", "setting": "[2]", "value": "15.1 ± 1.0", "unit": "mg/kg/min"}, {"measurement": "HGP, Clamp", "setting": "[2]", "value": "2.27 ± 0.37", "unit": "mg/kg/min"}, {"measurement": "Rd, Clamp", "setting": "[2]", "value": "24.9 ± 1.6", "unit": "mg/kg/min"}, {"measurement": "GIR, Clamp", "setting": "ICV 18 μg over 6 h, hyperinsulinemic clamp 3 mU/kg/min", "value": "22.8 ± 1.64", "unit": "mg/kg/min"}, {"measurement": "increase in peripheral glucose uptake (Rd)", "setting": "ICV HN, hyperinsulinemic clamp", "value": "~150", "unit": "%"}, {"measurement": "more reduction in hepatic glucose production (HGP)", "setting": "ICV HN, hyperinsulinemic clamp", "value": "~50", "unit": "%"}, {"measurement": "suppression of FFA compared to controls", "setting": "ICV HN, hyperinsulinemic clamp", "value": "significantly higher"}, {"measurement": "glucose infusion rate (GIR) relative to aCSF", "setting": "ICV HN, hyperinsulinemic clamp 3 mU/kg/min", "value": "165 % of aCSF"}, {"measurement": "glucose infusion rate (GIR) during the hyperinsulinemic clamp", "setting": "ICV HN, Example Summary, in mg/kg/min (unit assumed)", "value": "25.2 ±2.6"}, {"measurement": "humanin in the rat periphery", "setting": "after ICV infusion", "value": "No humanin was detected"}]}]}
